Source: ChEMBL document CHEMBL1687918, “Cell-permeable and plasma-stable peptidomimetic inhibitors of the postsynaptic density-95/N-methyl-D-aspartate receptor interaction” (J Med Chem, 2011)
Active and inactive are the calls of the source. No cut-off for these calls is given here. Peptide text beside a SMILES is read from it.

How the values were obtained:
Disks large homolog 4 [1] = biological target: T1, Disks large homolog 4 (Homo sapiens, UniProt P78352); experiment: Inhibition of PSD-95 PDZ2 domain by competitive fluorescence polarization assay
Target sequence in this assay (P78352 whole entry, the tested form may be a part): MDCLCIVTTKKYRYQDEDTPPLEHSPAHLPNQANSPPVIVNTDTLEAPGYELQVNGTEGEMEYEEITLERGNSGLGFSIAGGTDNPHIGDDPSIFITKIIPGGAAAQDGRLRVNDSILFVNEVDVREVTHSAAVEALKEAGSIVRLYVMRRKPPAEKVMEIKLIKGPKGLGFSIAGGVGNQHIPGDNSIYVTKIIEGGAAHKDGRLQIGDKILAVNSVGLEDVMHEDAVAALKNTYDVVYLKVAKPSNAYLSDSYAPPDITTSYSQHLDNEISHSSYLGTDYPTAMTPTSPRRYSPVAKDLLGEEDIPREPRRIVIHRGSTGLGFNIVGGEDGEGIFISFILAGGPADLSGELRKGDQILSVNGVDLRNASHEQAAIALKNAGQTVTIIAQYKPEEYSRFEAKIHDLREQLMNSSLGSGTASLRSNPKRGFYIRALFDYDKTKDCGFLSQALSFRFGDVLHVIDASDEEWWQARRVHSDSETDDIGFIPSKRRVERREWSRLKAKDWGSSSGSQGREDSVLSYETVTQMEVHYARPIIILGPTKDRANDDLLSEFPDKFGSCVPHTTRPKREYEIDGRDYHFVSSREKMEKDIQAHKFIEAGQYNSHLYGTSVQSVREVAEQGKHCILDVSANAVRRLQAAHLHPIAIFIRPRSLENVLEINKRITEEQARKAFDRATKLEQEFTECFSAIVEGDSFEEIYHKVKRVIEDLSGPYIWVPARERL

[2] = Stability in human plasma assessed as half life by ESI-LC/MS; format: ADME, cell-free
Disks large homolog 4 [3] = biological target: T1, Disks large homolog 4; experiment: Inhibition of PSD-95 PDZ2 domain-GluN2B interaction expressed in COS7 cells transfected with pGFP2-PDZ2 and pRluc-N2B at 50 to 1000 uM by BRET assay; format: cell-based; conditions: COS-7
Target sequence in this assay (P78352 whole entry, looked up, the tested form may be a part): as the sequence (P78352 whole entry, the tested form may be a part) above

Disks large homolog 4 [4] = biological target: T1, Disks large homolog 4; experiment: Inhibition of PSD-95 PDZ3 domain by competitive fluorescence polarization assay
Target sequence in this assay (P78352 whole entry, the tested form may be a part): as above

Disks large homolog 4 [5] = biological target: T1, Disks large homolog 4; experiment: Inhibition of PSD-95 PDZ2 domain-GluN2B interaction expressed in COS7 cells transfected with pGFP2-PDZ2 and pRluc-N2B at 500 uM by BRET assay; format: cell-based; conditions: COS-7
Target sequence in this assay (P78352 whole entry, looked up, the tested form may be a part): as the sequence (P78352 whole entry, the tested form may be a part) above

Disks large homolog 4 [6] = biological target: T1, Disks large homolog 4; experiment: Inhibition of PSD-95 PDZ2 domain-GluN2B interaction expressed in COS7 cells transfected with pGFP2-PDZ2 and pRluc-N2B at 100 uM by BRET assay; format: cell-based; conditions: COS-7
Target sequence in this assay (P78352 whole entry, looked up, the tested form may be a part): as the sequence (P78352 whole entry, the tested form may be a part) above

| Molecule | Ki (Disks large homolog 4 [1]) | Ki (Disks large homolog 4 [4]; read-out: Ki) | inhibition (Disks large homolog 4 [5]) | further results |
| --- | --- | --- | --- | --- |
| C[C@H](NC(=O)[C@H](C)NC(=O)[C@H](C)NC(=O)[C@H](CCC(=O)O)NCCCc1ccc(Cl)c(Cl)c1)C(=O)O | – | – | – | inhibition (Disks large homolog 4 [3]): inactive |
| CN[C@@H](CCC(=O)O)C(=O)N[C@H](C(=S)N[C@@H](C)C(=O)N[C@H](C(=O)O)C(C)C)[C@@H](C)O | 220 µM | – | – | half-life [2]: 9 h |
| CC(C)[C@H](NC(=O)[C@H](C)NC(=O)[C@@H](NC(=O)[C@H](CCC(=O)O)NCCC1CCCCCC1)[C@@H](C)O)C(=O)O | 1.2 µM | 9.4 µM | – | – |
| CC(C)[C@H](NC(=O)[C@H](C)NC(=O)[C@@H](NC(=O)[C@H](CCC(=O)O)NCCc1ccc2ccccc2c1)[C@@H](C)O)C(=O)O | – | – | Active | inhibition (Disks large homolog 4 [3]): Dose-dependent effect; half-life [2]: 1.53 h |
| CC(C)[C@H](NC(=O)[C@H](CC(=O)O)NC(=O)[C@@H](NC(=O)[C@H](C)N)[C@@H](C)O)C(=O)O (H-ATDV-OH) | – | – | – | Ki (Disks large homolog 4 [4]): Not Active |
| CC(C)[C@H](NC(=O)[C@H](C)NC(=O)[C@@H](NC(=O)[C@H](C)NCCc1ccc2ccccc2c1)[C@@H](C)O)C(=O)O | 56 µM | 280 µM | – | – |
| CC(C)[C@H](NC(=O)[C@H](CC(=O)O)NC(=O)[C@@H](NC(=O)[C@H](C)NCCC1CCCCC1)[C@@H](C)O)C(=O)O | – | > 400 µM | – | – |
| CC(C)[C@H](NC(=O)[C@H](CC(=O)O)NC(=O)[C@@H](NC(=O)[C@@H](N)CCC(=O)O)[C@@H](C)O)C(=O)O (H-ETDV-OH) | – | – | inactive | – |
| CC(C)[C@H](NC(=S)[C@H](C)NC(=O)[C@@H](NC(=O)[C@H](CCC(=O)O)NCCc1ccc2ccccc2c1)[C@@H](C)O)C(=O)O | 1.1 µM | 11 µM | Active | inhibition (Disks large homolog 4 [3]): Dose-dependent effect; half-life [2]: > 117 h |
| CC(C)[C@H](NC(=O)[C@H](CC(=O)O)NC(=O)[C@@H](NC(=O)[C@H](CCC(N)=O)NCCC1CCCCC1)[C@@H](C)O)C(=O)O | – | – | – | Ki (Disks large homolog 4 [4]): Not Active |
| CC(C)[C@H](NC(=O)[C@H](C)NC(=O)[C@@H](NC(=O)[C@H](CCC(=O)O)NCCCc1ccc2ccccc2c1)[C@@H](C)O)C(=O)O | 5 µM | 53 µM | – | – |
| H-RRRRRRRRKLSSIESDV-OH | – | – | – | inhibition (Disks large homolog 4 [6]): Active |
| CC(C)[C@H](NC(=O)[C@H](C)NC(=O)[C@@H](NC(=O)[C@H](CCC(=O)O)NCC1CC2CCC1C2)[C@@H](C)O)C(=O)O (some centres undefined) | 1.3 µM | 20 µM | – | – |
| CC(C)[C@H](NC(=O)[C@H](C)NC(=O)[C@@H](NC(=O)[C@H](CCC(=O)O)NCCCc1c2ccccc2cc2ccccc12)[C@@H](C)O)C(=O)O | 9 µM | 95 µM | – | – |
| CC(C)[C@H](NC(=O)[C@H](C)NC(=O)[C@@H](NC(=O)[C@H](CCC(=O)O)NCCC1CC2CCC1C2)[C@@H](C)O)C(=O)O (some centres undefined) | 1.5 µM | 14 µM | – | – |
| CN[C@@H](CCC(=O)O)C(=S)N[C@H](C(=O)N[C@@H](C)C(=O)N[C@H](C(=O)O)C(C)C)[C@@H](C)O | 32 µM | – | – | half-life [2]: > 91.7 h |
| CC(C)[C@H](NC(=O)[C@H](C)NC(=O)[C@@H](NC(=O)[C@@H](N)CCC(N)=O)[C@@H](C)O)C(=O)O (H-QTAV-OH) | 110 µM | > 400 µM | – | – |
| CC(C)[C@H](NC(=O)[C@H](CC(=O)O)NC(=O)[C@@H](NC(=O)[C@H](CCC(=O)O)NCCc1ccc2ccccc2c1)[C@@H](C)O)C(=O)O | 1.8 µM | 210 µM | inactive | – |
| CC(C)[C@H](NC(=O)[C@H](CC(=O)O)NC(=O)[C@@H](NC(=O)[C@@H](N)CCC(N)=O)[C@@H](C)O)C(=O)O | – | – | – | Ki (Disks large homolog 4 [4]): Not Active |
| CC(C)[C@H](NC(=S)[C@H](C)NC(=O)[C@@H](NC(=O)[C@H](CCC(=O)O)NCCc1ccc(Cl)c(Cl)c1)[C@@H](C)O)C(=O)O | 1 µM | 8.3 µM | Active | inhibition (Disks large homolog 4 [3]): Dose-dependent effect; half-life [2]: > 117 h |
| CC(C)[C@H](NC(=O)[C@H](C)NC(=O)[C@@H](NC(=O)[C@H](CCC(=O)O)NCCc1ccc2ccc3cccc4ccc1c2c34)[C@@H](C)O)C(=O)O | 16 µM | 51 µM | – | – |

More lines, main results first:

| Ki (Disks large homolog 4 [1]) | Ki (Disks large homolog 4 [4]; read-out: Ki) | inhibition (Disks large homolog 4 [5]) | Molecule | further results |
| --- | --- | --- | --- | --- |
| 10.8 µM | – | – | CN[C@@H](CCC(=O)O)C(=O)N[C@H](C(=O)N[C@@H](C)C(=S)N[C@H](C(=O)O)C(C)C)[C@@H](C)O | half-life [2]: > 91.7 h |
| 0.63 µM | 11 µM | Active | CC(C)[C@H](NC(=S)[C@H](C)NC(=O)[C@@H](NC(=O)[C@H](CCC(=O)O)NCCC1CCCCC1)[C@@H](C)O)C(=O)O | inhibition (Disks large homolog 4 [3]): Active; half-life [2]: > 117 h |
| 0.63 µM | – | Active | CC(C)[C@H](NC(=O)[C@H](C)NC(=O)[C@@H](NC(=O)[C@H](CCC(=O)O)NCCC1CCCCC1)[C@@H](C)O)C(=O)O | inhibition (Disks large homolog 4 [3]): Dose-dependent effect; half-life [2]: 0.483 h |
| – | – | inactive | CC(C)[C@H](NC(=O)[C@H](CC(=O)O)NC(=O)[C@@H](NC(=O)[C@H](CCC(=O)O)NCCC1CCCCC1)[C@@H](C)O)C(=O)O | Ki (Disks large homolog 4 [4]): Not Active |
| 1.8 µM | 8.8 µM | – | CC(C)[C@H](NC(=O)[C@H](C)NC(=O)[C@@H](NC(=O)[C@H](CCC(=O)O)NCCc1ccc(F)c(F)c1F)[C@@H](C)O)C(=O)O | – |
| 4.2 µM | 44 µM | – | CC(C)[C@H](NC(=O)[C@H](C)NC(=O)[C@@H](NC(=O)[C@H](CCC(=O)O)NCCCc1ccc(F)c(F)c1F)[C@@H](C)O)C(=O)O | – |
| – | – | inactive | CC(C)[C@H](NC(=O)[C@H](C)NC(=O)[C@@H](NC(=O)[C@@H](N)CCC(=O)O)[C@@H](C)O)C(=O)O | – |
| 9.65 µM | – | – | CN[C@@H](CCC(=O)O)C(=O)N[C@H](C(=O)N[C@@H](C)C(=O)N[C@H](C(=O)O)C(C)C)[C@@H](C)O | half-life [2]: 1.88 h |
| 33 µM | 76 µM | – | CC(C)[C@H](NC(=O)[C@H](C)NC(=O)[C@@H](NC(=O)[C@H](CCC(=O)O)NCCCCc1ccc2ccc3cccc4ccc1c2c34)[C@@H](C)O)C(=O)O | – |
| – | > 400 µM | inactive | CC(C)[C@H](NC(=O)[C@H](C)NC(=O)[C@@H](NC(=O)[C@H](C)N)[C@@H](C)O)C(=O)O (H-ATAV-OH) | – |
| 1.4 µM | 16 µM | – | CC(C)[C@H](NC(=O)[C@H](C)NC(=O)[C@@H](NC(=O)[C@H](CCC(=O)O)NCC1CCCCCC1)[C@@H](C)O)C(=O)O | – |
| 2.1 µM | 6.7 µM | – | CC(C)[C@H](NC(=O)[C@H](C)NC(=O)[C@@H](NC(=O)[C@H](CCC(=O)O)NCC12CC3CC(CC(C3)C1)C2)[C@@H](C)O)C(=O)O | – |
| 1.2 µM | 130 µM | inactive | CC(C)[C@H](NC(=O)[C@H](CC(=O)O)NC(=O)[C@@H](NC(=O)[C@H](CCC(=O)O)NCCc1ccc(Cl)c(Cl)c1)[C@@H](C)O)C(=O)O | – |
| – | – | Active | CC(C)[C@H](NC(=O)[C@H](C)NC(=O)[C@@H](NC(=O)[C@H](CCC(=O)O)NCCc1ccc(Cl)c(Cl)c1)[C@@H](C)O)C(=O)O | inhibition (Disks large homolog 4 [3]): Dose-dependent effect; half-life [2]: 1.38 h |
| 13 µM | 64 µM | – | CC(C)[C@H](NC(=O)[C@H](C)NC(=O)[C@@H](NC(=O)[C@H](C)NCCc1ccc(Cl)c(Cl)c1)[C@@H](C)O)C(=O)O | – |
